Laboratory results published in patent publication US7964613B2 (Asahi Kasei Pharma Corporation, priority 2007, dated 2011).
Structures can show the parent of a compound that is named as a salt.

What was measured:
[1] = target: T1, human ROCK1 (Homo sapiens, UniProt Q13464); assay: Measurement of Rho kinase inhibitory activity (ELISA of MBS phosphorylation); assay type: biochemical; settings: human ROCK1, MBS substrate, 100 μM ATP, 30° C. for 10 minutes
T1 construct: His tag (N); host or cells: insect cells (Sf9)
T1 sequence (Q13464 1-727): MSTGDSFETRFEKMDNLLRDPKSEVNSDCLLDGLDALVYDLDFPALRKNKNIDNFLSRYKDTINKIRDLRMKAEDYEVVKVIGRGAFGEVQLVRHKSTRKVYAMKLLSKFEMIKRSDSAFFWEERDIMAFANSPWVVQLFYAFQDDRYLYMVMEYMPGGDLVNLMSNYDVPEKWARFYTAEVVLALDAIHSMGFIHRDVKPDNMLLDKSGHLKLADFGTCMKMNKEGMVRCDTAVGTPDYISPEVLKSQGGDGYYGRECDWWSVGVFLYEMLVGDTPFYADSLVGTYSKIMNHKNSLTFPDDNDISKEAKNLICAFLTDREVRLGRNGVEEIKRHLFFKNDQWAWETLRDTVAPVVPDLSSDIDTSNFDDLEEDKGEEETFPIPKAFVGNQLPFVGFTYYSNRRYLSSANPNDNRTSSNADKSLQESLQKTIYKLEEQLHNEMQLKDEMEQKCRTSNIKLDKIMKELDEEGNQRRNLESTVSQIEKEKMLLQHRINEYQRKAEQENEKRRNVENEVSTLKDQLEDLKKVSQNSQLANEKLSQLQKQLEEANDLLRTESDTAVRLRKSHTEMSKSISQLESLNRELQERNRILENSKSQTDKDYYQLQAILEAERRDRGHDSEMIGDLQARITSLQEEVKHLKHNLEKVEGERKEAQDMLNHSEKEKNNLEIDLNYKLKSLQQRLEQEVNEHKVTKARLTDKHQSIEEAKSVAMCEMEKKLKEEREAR
Procedure, shortened: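 N-terminal His-tagged human ROCK1 (1-727, Sf9-expressed) phosphorylated plate-immobilized MBS in 20 mM HEPES pH 7.5, 100 μM ATP, 30° C for 10 minutes. Phospho-MBS detected by antibody ELISA (A490); IC50 is concentration giving 50% inhibition.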

[2] = tested on: rabbit normal intraocular pressure; assay: Intraocular pressure reducing action; assay type: in vivo, Japanese white rabbit; settings: Oryctolagus cuniculus, topical; 3 mM aqueous solution, 50 μl to the left eye; max IOP reduction (2, 4, 6 hours) / value immediately before administration; read-out: intraocular pressure reducing degree
Procedure, shortened: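 Japanese white rabbits (~2 kg) under topical anaesthesia received 50 μl of a 3 mM aqueous test solution in the left eye, right eye untreated. IOP read by tonometer before and at 2, 4, 6 h; maximal left–right difference divided by pre-dose IOP ×100 gives % reduction.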

[3] = tested on: TNF-α production; assay: Inhibitory effect on TNF-α production in mice (LPS); assay type: in vivo, BALB/c mice; settings: Mus musculus, 1.5 h; oral administration of 30 mg/kg, LPS 5 μg i.p. 60 minutes later, plasma after 90 minutes; read-out: TNF-α production suppressing action
Method: BALB/c mice (Japan CRJ, famale) were used as experimental animals. Each test compound was dissolved in distilled water at a concentration suitable for the examination. The weight of each mouse was measured, a test compound solution was orally administered in a volume corresponding to 10 ml/kg, and only distilled water was administered to the control group. Each group consisted of five to seven animals. LPS was dissolved in physiological saline, and intraperitoneally administered to each mouse in an amount of 5 μg. The test compound was administered first, and LPS (lipopolysaccharide, Sigma) was administered 60 minutes later. After 90 minutes, blood was collected from the abdominal large vein in the presence of heparin, and plasma was obtained by centrifugation. TNF-α content in the plasma was measured by using the ELISA method.

[4] = tested on: mouse neuroblastoma cell strain N1E-115; assay: Inhibitory effect on neurite retraction (LPA-induced); assay type: cell-based; settings: mouse/rat NG108-15; 10 μM compound, 1 μM LPA, N1E-115 cells
Method: An experiment for Inhibitory effect on neurite retraction using mouse neuroblastoma cell strain N1E-115 was performed according to the method of Hirose, M. et al. (J. Cell. Biol., 141, pp. 1625-1636 (1998)). This method utilizes the fact that LPA (lysophosphatidic acid), which is a endogenous substance, induces neurite retraction, and is a method of evaluating how much a drug can inhibit the LPA-induced neurite retraction and thereby evaluating potency of inhibition of neuronal degeneration and potency of neuronal regeneration of the drug. N1E-115 cells cultured in a DMEM solution containing 20% heat-inactivated fetal bovine serum were plated on a 6-well plate (IWAKI) at a density of 40,000 cells/well, and cultured overnight at 37° C. in the same culture medium in a 5% CO2 incubator. In order to induce differentiation of the N1E 115 cells into nerve cells, the culture medium was changed to the serum-free DMEM solution, and the cells were cultured for 1 or 2 days at 37° C. in the 5% CO2 incubator until most of the cells extended the neurites. On the examination day, each compound of the present invention was added at a final concentration of 10 μM, incubation was performed for 30 minutes, then LPA (Sigma) was added at a final concentration of 1 μM, and incubation was further performed for 10 minutes. To the control, the same volume of phosphate buffered saline as the solvent was added. After completion of the incubation, glutaraldehyde was added at a final concentration of 5% to fix the cells. […] The inhibition rate (%) of each drug was calculated by using the following equation. Inhibition rate(%)=100−(RCP obtained with drug to be evaluated−RCP of control)/(RCP obtained with LPA−RCP of control)×100

[5] = tested on: intraocular pressure; assay: Rabbit intraocular pressure reduction enhancing action, Test Example 7-1 (combination use); assay type: in vivo, Japanese white rabbit; settings: Table 4; 19-1 compound 0.01 weight % aqueous solution 50 μL, Azopt 50 μL; left-right eye difference at 2, 4, 6 hours; six rabbits
Method: However, the effect is not limited to the 19-1 compound, and the ophthalmic solution concentration of the 19-1 compound is not limited to those used in this test example. Moreover, as for the test compound used for combination use, similar effect can be obtained also with the compounds of the present invention represented with the example numbers mentioned in Test Example 3.
As a test compound, the 19-1 compound was dissolved in physiological saline, and the solution was neutralized by addition of sodium hydroxide (pH 7.0 to 8.0) to prepare a 0.01 weight % aqueous solution (19-1 compound aqueous solution). As the drugs for combination use, isopropyl unoprostone (trade name: Rescula, Santen Pharmaceutical) was used as a prostaglandin-related drug, and brinzolamide hydrochloride (trade name: Azopt, Alcon Japan) was used as […], as the marketed formulations as they were.
A Japanese white rabbit having a body weight of about 2 kg was placed in a positioner and naturalized for one week before the experiment. An opthalmologic local anesthesant (Benoxil) was administered to both eyes, and then intraocular pressure before instillation was measured by using a tonometer (Classic 30, Solan). A test aqueous solution or the drug for combination use was administered to the left eye, and the right eye was not treated (control eye). The test groups consisted of (1) control group, (2) group instilled only with the 19-1 compound aqueous solution (single drug group 1), (3) group instilled only with the drug for combination use (single drug group 2), and (4) group instilled with the drug for combination use and the 19-1 compound aqueous solution (combination use group), and six rabbits were used for each group. As for the rabbits of these groups, 50 μL of physiological saline was first instilled to the control group, single drug group 1, and single drug group 2, and the drug for combination use was first instilled in the same volume to the combination use group. […] The intraocular pressure thereafter was measured for each group 2, 4 and 6 hours after the second administration of the test compound, and the difference of the measured values for the left and right eyes at each measurement time was considered an intraocular pressure reduction value of each group. The largest difference of the intraocular pressure values for the left and right eyes among those of the measured values of the measurement times was considered the maximum intraocular pressure reduction value (max ? IOP) of each drug group.

[6] = tested on: rat spinal canal stenosis (cauda equina compression-induced walking dysfunction) model; assay: Rat spinal canal stenosis model, walking ability test; assay type: in vivo; settings: treadmill; for walk distance compared with the solvent repetitive administration group: 14th day of repetitive administration; for Inventive compound repetitive administration group (average distance (m)): 14th day of repetitive administration started 4th day after operation, 7 or 8 animals
From the text: A rat spinal canal stenosis (cauda equina compression-induced walking dysfunction) model can be prepared according to the method of Nakai, K et al. (Anesth. Analg., 94, pp. 1537-1541 (2002)) or the like. Namely, a rat is anesthetized with pentobarbital sodium, shaved on the back, and fixed in the abdominal position. After disinfection on the back with Isodine Surgical Scrub (Meiji Seika), a lumbar part is cut open along the median to expose the spine. Then, a silicone rubber of 1×4×1.5 mm (height×length×width) is inserted into the fifth lumbar vertebral canal from a small hole on the vertebral arch. Benzylpenicillin potassium (Crystalline Penicillin G Potassium Meiji, Meiji Seika) is dropped on the opened lesion and intramuscularly injected in the femoral region for the purpose of evasion of infectious diseases. The muscles and skin of the opened lesion are sutured with a ligature, and Isodine Surgical Scrub is applied to the sutured portion. Animals of sham group are also prepared according to the aforementioned method, provided that silicone rubber is not inserted.
In walking ability test, evaluation is performed by using a treadmill (Muromachi Kikai). A rat is placed on a traveling belt, adapted to the environment more than 3 minutes under a grid-electrified condition (0.04 to 4 mA), and then made to start walking from a velocity of 10 m/min, and then the velocity is increased by 5 m/min every 3 minutes. The walk is stopped, and electrical stimulation (0.04 to 4 mA) is applied to the rat which has moved to the grid for electrical stimulation provided before the traveling belt. Distance which the animal walked after the animal started the walk until the animal became unable to walk, i.e., the animal came not to walk even if a stimulation (sound, contact, electricity) was added to the animal to urge it to walk, was calculated from the walking time. Before the operation, the walking function test is carried out 3 times to perform training of walk. From the 4th day after the operation, repetitive administration of each compound of the present invention as a test compound was started, and the walking ability test was performed on the 14th day of the administration for the measurement.
Each group consisted of 7 or 8 animals, and the average distance before the administration was the average for the animals of both groups. […] It was confirmed that the compounds of the present invention were useful as medicaments for therapeutic treatment of a disease accompanied by walking dysfunction such as spinal canal stenosis.

Row | Structure (SMILES) | IC50 [1] | inhibition in vivo at 3000 µM [2] | inhibition in vivo at 30 mg/kg [3] | inhibition at 10 µM [4] | Max IOP (maximum intraocular pressure reduction value) [5] | walk distance compared with the solvent repetitive administration group [6] | Inventive compound repetitive administration group (average distance (m)) [6]
1 | N[C@H]1CCN(S(=O)(=O)c2cccc3cncc(F)c23)C1 [Example 18-1, (S)-3-Amino-1-(4-fluoro-5-isoquinolinesulfonyl)pyrrolidine] | 1000 to 3000 nM | ≥ 20% | ≥ 50% | ≥ 50% | – | – | –
2 | CCN[C@H]1CN(CCCOC)S(=O)(=O)c2sc(S(N)(=O)=O)cc21 [brinzolamide hydrochloride, reference compound] | – | – | – | – | 2.3 mmHg | – | –
3 | Nc1ncc(Cl)c2c(S(=O)(=O)N3CC[C@H](N)C3)cccc12 [Example 39-1, (S)-3-Amino-1-(1-amino-4-chloro-5-isoquinolinesulfonyl)pyrrolidine] | < 1000 nM | 10 to 20% | ≥ 50% | ≥ 50% | – | – | –
4 | CN[C@@H]1CCN(S(=O)(=O)c2cccc3cncc(Cl)c23)C1 [Example 32-2, (R)-1-(4-Chloro-5-isoquinolinesulfonyl)-3-(methylamino)pyrrolidine] | < 1000 nM | 10 to 20% | – | ≥ 50% | – | – | –
5 | O=S(=O)(c1cccc2cncc(Br)c12)N1CC[C@H](NCc2ccc[nH]2)C1 [Example 1-18] | < 1000 nM | 10 to 20% | ≥ 50% | ≥ 50% | – | – | –
6 | CN[C@H]1CCN(S(=O)(=O)c2cccc3c(N)ncc(Cl)c23)C1 [Example 40-1, (S)-1-(1-Amino-4-chloro-5-isoquinolinesulfonyl)-3-(methylamino)pyrrolidine] | 1000 to 3000 nM | 5 to 10% | ≥ 50% | ≥ 50% | – | – | –
7 | CN[C@H]1CCN(S(=O)(=O)c2cccc3c(N)ncc(Br)c23)C1 [Example 42-1, (S)-1-(1-Amino-4-bromo-5-isoquinolinesulfonyl)-3-(methylamino)pyrrolidine] | < 1000 nM | 5 to 10% | – | ≥ 50% | – | – | –
8 | Cc1cncc2cccc(S(=O)(=O)N3CC[C@H](N)C3)c12 [Example 8-1, (S)-3-Amino-1-(4-methyl-5-isoquinolinesulfonyl)pyrrolidine] | < 1000 nM | ≥ 20% | ≥ 50% | – | – | extended the walk distance | 169 m
9 | N[C@H]1CCN(S(=O)(=O)c2cccc3c(O)ncc(F)c23)C1 [Example 29-1, (S)-3-Amino-1-(1-hydroxy-4-fluoro-5-isoquinolinesulfonyl)pyrrolidine] | < 1000 nM | 10 to 20% | ≥ 50% | ≥ 50% | – | – | –
10 | O=S(=O)(c1cccc2cncc(Cl)c12)N1CC[C@H](NC2CCOCC2)C1 [Example 19-31] | 1000 to 3000 nM | – | ≥ 50% | ≥ 50% | – | – | –
11 | CN(C)CC(=O)N[C@H]1CCN(S(=O)(=O)c2cccc3cncc(Cl)c23)C1 [Example 57-1, (S)-3-[(2-Dimethylamino)acetyl]amino-1-(4-chloro-5-isoquinolinesulfonyl)pyrrolidine] | 1000 to 3000 nM | ≥ 20% | ≥ 30% | – | – | extended the walk distance | 183 m
12 | N[C@H]1CCN(S(=O)(=O)c2cccc3cncc(C4CC4)c23)C1 [Example 11-1, (S)-3-Amino-1-(4-cyclopropyl-5-isoquinolinesulfonyl)pyrrolidine] | < 1000 nM | 5 to 10% | ≥ 30% | – | – | – | –
13 | C#Cc1cncc2cccc(S(=O)(=O)N3CC[C@H](N)C3)c12 [Example 10-1, (S)-3-Amino-1-(4-ethynyl-5-isoquinolinesulfonyl)pyrrolidine] | < 1000 nM | ≥ 20% | ≥ 50% | – | – | – | –
14 | CN[C@H]1CCN(S(=O)(=O)c2cccc3c(O)ncc(Br)c23)C1 [Example 35-1, (S)-1-(1-Hydroxy-4-bromo-5-isoquinolinesulfonyl)-3-(methylamino)pyrrolidine] | < 1000 nM | 5 to 10% | ≥ 50% | – | – | – | –
